Patent US20220238900A1, “All Natural Redox Flow Battery Utilizing Indigo Carmine And Derivatives Thereof” (Northeastern University, priority 2019, published 2022)
Values after ≈ are worked out from the molar mass of the structure shown. Values joined by “and” are separate entries in the source; they are usually repeats but may differ in a detail not shown here. Identical values can stand only once.

How the values were obtained:
physchem = experiment: physchem
Source text: FIG. 1A illustrates the natural source of the indigo dye. The most natural product from which indigo is obtained includes indican (genus indigofera plants) and isatan (woad plants or isatis tinctoria) in tropical and moderate climate zones, respectively.^[19] Irrespective of their source, the chemistry of the dye extraction involves soaking the leaves of the plants in water to facilitate the fermentation process, during which the indican readily undergoes enzymatic hydrolysis and releases indoxyl that converts to indigo by oxidation upon exposure to air. […] On the contrary, a high concentration of reactants in solution is the key to minimize the storage tank size while obtaining high specific volumetric energy density. Therefore, the design of an appropriate electrolyte for AORFB starts from identifying redox-active materials followed by optimization of the structure to achieve the maximum solubility to maximize the energy density. […] In IC-H, the substituted protons are attached to the strongly electronegative oxygen atoms and capable of forming strong hydrogen bondings. Hydrogen bondings are usually stronger than the Van Der Wall forces and dipole interactions.

[1] = Rotating disk electrode linear sweep voltammetry (Levich and Tafel analysis); format: physicochemical
Source text: Further, the log (i0) can also be represented as FACOk0, where k0 is the electron transfer rate constant.

[2] = Three-electrode half-cell cyclic voltammetry

Row | aqueous solubility (physchem) [mM] | improvement in solubility (physchem) [folds] | electron transfer (reaction) rate constant ([1]; 1 mM in 0.1 M HClO4, fitted Tafel plot) [cm/s] | electron transfer rate constant k0 ([1]; LSV data at 2700 rpm, Tafel plot) [cm/s] | chemical stability on CV cycling ([2]; 10,000 cycles at 40 mV s^−1) | redox peak separation ([2]; scan rates 5 mV s^−1 to 200 mV s^−1) [mV] | SMILES | diffusion coefficient ([1]; 1 mM in 0.1 M HClO4, slope of Levich plot) | redox potential (redox peaks) ([2]; acidic medium (0.1 M HClO4 where stated))
1 | 760 (≈ 321 mg/mL) | 22 | 0.000282 | 0.000282 | negligible decay | 40 | O=C1/C(=C2\Nc3ccc(S(=O)(=O)O)cc3C2=O)Nc2ccc(S(=O)(=O)O)cc21 [IC-H, 5,5′-indigodisulfonic acid] | 2.232×10^−5 cm^2 s^−1 and 2.23×10^−5 cm^2 s^−1 | 
2 |  |  |  |  |  |  | CC1(C)CCCC(C)(C)N1[O] [TEMPO, 2,2,6,6-tetramethylpiperidine-1-oxyl, reference compound] |  | around 0.75 V vs. Ag/AgCl
